Values of other authors in US8323615B2, “Methods of processing multi-phasic dispersions” (Baxter International Inc., priority 2008, dated 2012).
Counter-ions that a name gives are not always drawn. Like-named read-outs stand apart in the source and are kept apart here.

What was measured:
rats = conditions: for LD50, cells marked "I": value followed by undefined mark "I"
[1] = ambient temperature such as 20-25° C.
[2] = rats, oral, all at once (acute toxicity), minimal amount reported in the literature

FC(F)CC(F)(F)F [Genesolv ® S-F, 1,1,1,3,3-pentafluoropropane]
LD50, cells marked "I" (rats): >200 I g/kg body weight
Sol. (solubility of water in the liquid) ([1]; parts per million by weight): 1600 ppm

FC(F)(F)C(F)(F)C(F)(F)C(F)(F)N(C(F)(F)C(F)(F)C(F)(F)C(F)(F)F)C(F)(F)C(F)(F)C(F)(F)C(F)(F)F [Fluorinert ® FC-43, perfluorotributylamine]
LD50 (rats; [2]): 10 g/kg body weight
Sol. (solubility of water in the liquid) ([1]; parts per million by weight): 7 ppm

O=C1CCCO1 [gamma-butyrolactone]
LD50 (rats; rat, in vivo, po): 1.54 g/kg body weight

O=S1(=O)CCCC1 [Sulfolane]
LD50 (rats; [2]): 1.94 g/kg body weight

methoxynonafluorobutane [Novec ™ HFE-7100]
LD50 (rats; [2]): >5 g/kg body weight
Sol. (solubility of water in the liquid) ([1]; parts per million by weight): 95 ppm

COCCOCCO [diethylene glycol methyl ether]
Sol. (solubility of water in the liquid) ([1]; in %): 100%

OCCOCCO [diethylene glycol]
LD50 (rats; [2]): 13 g/kg body weight

NC=O [Formamide]
LD50 (rats; [2]): 5.5 g/kg body weight

FC(F)(F)C(F)(F)C(F)(F)C(F)(F)C(F)(F)C(F)(F)F [Perfluorohexane]
LD50 (rats; [2]): 5 g/kg body weight
Sol. (solubility of water in the liquid) ([1]; unit not given): 0.03 g/100 g
Sol. (solubility of water in the liquid) ([1]; parts per million by weight): 10 ppm

O=C1OCCO1 [ethylene carbonate]
LD50 (rats; [2]): 10 g/kg body weight

OCc1ccco1 [furfuryl alcohol]
LD50 (rats; rat, in vivo, po): 0.275 g/kg body weight

CC(O)C(=O)O (stereo not drawn) [lactic acid]
LD50 (rats; rat, in vivo, po): 3.7, 3.5 g/kg body weight
LD50 (rats; [2]): 3.7, 3.5 g/kg body weight

CC(F)(Cl)Cl [Genesolv ® 2000 HFC-141b]
LD50 (rats; [2]): >5 g/kg body weight

FCC(F)(F)F [Genetron ® HFC-134a]
LD50, cells marked "I" (rats): 62 I g/kg body weight
Sol. (solubility of water in the liquid) ([1]; in %): 0.11%

OCC(F)(F)F [2,2,2-trifluoroethanol]
LD50 (rats; [2]): 0.24 g/kg body weight

C1OCOCO1 [Trioxane]
LD50 (rats; [2]): 3.2 g/kg body weight
Sol. (solubility of water in the liquid), in words [1]: soluble

OCC(F)(F)C(F)(F)F [pentafluoropropyl alcohol]
LD50 (rats; [2]): 1 g/kg body weight
Sol. (solubility of water in the liquid), in words [1]: soluble

CN1CCCC1=O [N-methylpyrrolidone]
LD50 (rats; [2]): 4.15 g/kg body weight
Sol. (solubility of water in the liquid) ([1]; in %): 100%

CC1COC(=O)O1 (stereo not drawn) [propylene carbonate]
LD50 (rats; [2]): 29 g/kg body weight
Sol. (solubility of water in the liquid) ([1]; in %): 23%

tetrahydrofurfuryl alcohol polyethyleneglycol ether [Glycofurol]
LD50 (rats; [2]): 7.8 g/kg body weight
Sol. (solubility of water in the liquid) ([1]; in %): >50%

OCCOCc1ccccc1 [ethylene glycol monobenzyl ether]
LD50 (rats; [2]): 1.19 g/kg body weight
Sol. (solubility of water in the liquid) ([1]; unit not given): 4 g/100 g

OCC(O)CO [Glycerol]
LD50 (rats; rat, in vivo, po): 13 g/kg body weight

O=C(C(F)(F)C(F)(F)F)C(F)(C(F)(F)F)C(F)(F)F [Novec ™ 1230, dodecafluoro-2-methylpentan-3-one]
LD50, cells marked "I" (rats): >100 I g/kg body weight

COC(F)(F)C(F)(F)C(F)(F)F [Novec ™ HFE-7000, 1-methoxyheptafluoropropane]
LD50 (rats; [2]): >2 g/kg body weight
Sol. (solubility of water in the liquid) ([1]; parts per million by weight): 60 ppm

FC(C(F)C(F)(F)C(F)(F)F)C(F)(F)F (stereo not drawn) [HFC-4310mee]
LD50, cells marked "I" (rats): 11 I g/kg body weight
Sol. (solubility of water in the liquid) ([1]; parts per million by weight): 400 ppm

CCOC(F)(F)C(F)(F)C(F)(F)C(F)(F)F [Novec ™ HFE-7200, ethoxynonafluorobutane]
LD50 (rats; [2]): >5 g/kg body weight
Sol. (solubility of water in the liquid) ([1]; parts per million by weight): 92 ppm

ClC=C(Cl)Cl [1,1,2-trichloroethylene]
LD50 (rats; [2]): 2.4 g/kg body weight
Sol. (solubility of water in the liquid) ([1]; unit not given): 0.11 g/100 g

S=C=S [carbon disulfide]
LD50 (rats; rat, in vivo, po): 3.2 g/kg body weight
Sol. (solubility of water in the liquid) ([1]; in %): <1%

C[S+](C)[O-] [DMSO, dimethylsulfoxide]
LD50 (rats; [2]): 18 g/kg body weight

FC(F)(F)C(F)(F)C(F)(F)C(F)(F)C(F)(F)N(C(F)(F)C(F)(F)C(F)(F)C(F)(F)C(F)(F)F)C(F)(F)C(F)(F)C(F)(F)C(F)(F)C(F)(F)F [Fluorinert ® FC-70, perfluorotriamylamine]
LD50 (rats; [2]): NTO
Sol. (solubility of water in the liquid) ([1]; parts per million by weight): 8 ppm

COC(=O)C(C)O (stereo not drawn) [lactic acid, methyl ester]
LD50 (rats; [2]): 2 g/kg body weight
Sol. (solubility of water in the liquid), in words [1]: decomp

CCOC(=O)C(=O)OCC [diethyl oxalate]
LD50 (rats; rat, in vivo, po): 0.4 g/kg body weight

trimethylene glycol
LD50 (rats; rat, in vivo, po): 4.77 g/kg body weight

CC(O)CO (stereo not drawn) [propylene glycol]
LD50 (rats; [2]): 22 g/kg body weight

O=Cc1ccco1 [Furfural]
LD50 (rats; rat, in vivo, po): 0.05 g/kg body weight

CC(Cl)(Cl)Cl [1,1,1-trichloroethane]
LD50 (rats; [2]): 9.6 g/kg body weight
LD50 (rats; rats, oral, all at once (acute toxicity), minimal amount reported in the literature, listed as 1,1,1-TCA): 16 g/kg body weight
Sol. (solubility of water in the liquid) ([1]; unit not given): 0.15 g/100 g
Sol. (solubility of water in the liquid) ([1]; parts per million by weight): 170 ppm

ClC(Cl)(Cl)Cl [carbon tetrachloride]
LD50 (rats; [2]): 2.3 g/kg body weight
Sol. (solubility of water in the liquid) ([1]; unit not given): 0.05 g/100 g

CCOC(F)(C(F)(F)C(F)(F)C(F)(F)F)C(F)(C(F)(F)F)C(F)(F)F (stereo not drawn) [Novec ™ HFE-7500, 2-trifluoromethyl-3-ethoxydodecafluorohexane]
LD50 (rats; [2]): >2 g/kg body weight

ClCCl [methylene chloride]
LD50 (rats; [2]): 1.6 g/kg body weight
Sol. (solubility of water in the liquid) ([1]; unit not given): 1.32 g/100 g

c1ccc(Oc2ccccc2)cc1 [diphenyl ether]
LD50 (rats; [2]): 3.37 g/kg body weight

Fc1cc(F)c(F)c(F)c1F [pentafluorobenzene]
LD50 (rats; rat, in vivo, po): 2 g/kg body weight

FC(F)(Cl)C(F)(F)Cl [1,2-dichlorotetrafluoroethane]
LD50 (rats; [2]): 2.25 g/kg body weight
Sol. (solubility of water in the liquid) ([1]; unit not given): 0.13 g/100 g

FC(F)(F)C(F)(F)C(F)(F)C(F)(F)C(F)(F)C(F)(F)F [PF-5060 & PF-5060DL]
LD50 (rats; [2]): >5 g/kg body weight
